Experimental data as given in patent publication US9949948B2, “Artemisinin and its derivatives for use in the treatment of trauma haemorrhage and associated conditions” (Queen Mary University of London, priority 2011, dated 2018).

Columns and labels:
mice injected with LPS = assay: Organ injury and dysfunction in a mouse model of septic shock (LPS); assay type: in vivo, C57BL/6 mice; conditions: 10 mg/kg, all three treatment groups (i.p. 1 h post-LPS, i.v. 1 h post-LPS, i.p. 30 min pre-LPS)
Method: Twenty-six male C57BL/6 mice (Harlan Laboratories, Wyton, UK), weighing 20-30 g were used for this experiment. At time point 0 (t=0 h) mice received either LPS (9 mg/kg in 5 ml/kg 0.9% NaCl) or vehicle (5 ml/kg 0.9% NaCl) intraperitoneally (i.p.). Mice were then sacrificed 16-18 h after the injection of LPS by induction of anaesthesia with ketamine (100 mg/ml)/xylazine (20 mg/ml) solution in a 2:1 ratio and removal of the heart.
At the end of the experiment, 0.7 ml blood was collected from the right carotid artery and decanted into serum gel tubes (Sarstedt, Numbrecht, Germany). The samples were centrifuged (9900 rpm for 3 min) to separate serum from which urea, creatinine and alanine aminotransferase (ALT) were measured within 24 hours (Idexx Laboratories Ltd., West Yorkshire, UK).
Share-operated nice received saline (5 ml/kg i.p.) instead of LPS.

[1] = system: rats subjected to regional myocardial ischaemia and reperfusion; assay: Regional myocardial ischaemia and reperfusion, artesunate dissolved in 10% DMSO; assay type: in vivo, Wistar rats; conditions: for Infarct size reduction: vs control; for infarct size (percentage of the AAR): control 59.8±3.2%, P<0.05
Method: Rats were anesthetised with thiopentone sodium (Intraval® 120 mg/kg i.p.). Anesthesia was maintained by supplementary injections of thiopentone sodium as required. The trachea was cannulated and the animals were ventilated with a Harvard ventilator (inspiratory oxygen concentration: 30%; 70 strokes/min, tidal volume: 8-10 ml/kg). Body temperature was maintained at 37+1° C. with the aid of a rectal probe thermometer attached to a homeothermic blanket unit (Harvard Apparatus Ltd., Edenbridge, Kent. U.K.). […] The right jugular vein was then cannulated for the administration of drugs and saline. A para-sternal thoracotomy was then performed, using an Electrosurgery device to cauterize the intercostals arteries before cutting through three ribs. The chest was retracted and pericardium dissected from the heart. The left anterior descending (LAD) coronary artery was isolated and a snare occluder was placed around the LAD. The retractor was then removed and the animal was allowed to stabilise for 15 min.
The occluder was tightened at time 0. After 25 min of LAD-occlusion, the occluder was released to allow reperfusion of the previously ischemic myocardium (2 h). Hemodynamic parameters were continuously monitored. Baseline readings were taken prior to treatment, and, myocardial IRI. The pressure rate index (PRI), a relative indicator of myocardial oxygen consumption was calculated as a product of the MAP (mmHg) and HR (beats/minute-bpm) and expressed in mm Hg bpm×10-3.
At the end of the 2 h reperfusion period, the LAD was re-occluded and 1 ml of Evans Blue dye (2% w/v) was injected into the animal, via the jugular vein. The Evans Blue dye stains the tissue it can circulate through, therefore the non-perfused vascular (occluded) tissue remains un-coloured. Each animal was killed with an over-dose of anaesthetic, the heart excised, and excess dye washed off. […] The ischaemic and non-ischaemic tissue was weighed, and the AAR expressed as a percentage of the left ventricle. The tissue from the AAR was cut into small pieces and incubated with p-nitroblue tetrazolium (NBT, 0.5 mg/ml) for 30 min at 37° C. NBT is a reducing agent that reacts with dehydrogenases present in viable (non-infarcted) tissue to produce a dark blue formazan. Infarcted tissue (non-viable) will not have dehydrogenase activity and will therefore fail to stain. The stained tissue was separated from the infarcted tissue, weighed, and the infarct size expressed as a percentage of the AAR.

HS-rats = assay: Organ injury and dysfunction induced by trauma haemorrhage (haemorrhagic shock) in the rat; assay type: in vivo, Wistar rats
Method: Thirty-five male Wistar rats (271±5 g) were anaesthetised with sodium thiopentone (120 mg/kg i.p., LINK Pharmaceuticals Ltd., West Sussex, UK) and anaesthesia was maintained by supplementary injections (˜10 mg/kg i.v.) of sodium thiopentone as and when required. The animals were placed onto a thermostatically controlled heating mat (Harvard Apparatus Ltd., Kent, UK) and body temperature was maintained at 37±1° C. by means of a rectal probe attached to a homeothermic blanket. A tracheotomy was performed by inserting into the lumen of the trachea a small length of polyethylene tubing [Internal Diameter (ID) 1.67 mm, Portex, Kent, UK] to maintain airway patency and facilitate spontaneous respiration.
The right carotid artery was cannulated (ID 0.58 mm, Portex) to facilitate the withdrawal of blood using a heparinised syringe. The right jugular vein was cannulated (ID 0.40 mm, Portex) for the administration of Ringer's Lactate (RL), shed blood, test compounds and/or vehicle. The bladder was also cannulated (ID 0.76 mm, Portex) for the collection of urine. Upon completion of the surgical procedure, cardiovascular parameters were allowed to stabilise for a period of 15 min.
After the stabilisation period, blood was withdrawn via the cannula inserted in the right carotid artery in order to achieve a fall in MAP to 35±5 mmHg within 10 min. From this point onwards, MAP was maintained at 35±5 mmHg for a period of 90 min either by further withdrawal of blood during the compensation phase (MAP rises following blood withdrawal due to sympathetic response) or administration of Ringer's Lactate i.v. during the decompensation phase (animals are unable to increase and maintain high MAP). The average volume of blood withdrawn during haemorrhage was 9.8±0.2 ml (n=31, across all haemorrhaged groups). At 90 min after initiation of haemorrhage, resuscitation was performed with 20 ml/kg Ringer's Lactate i.v. over a period of 10 min and then half the shed blood mixed with 100 u/ml heparinised saline i.v. over a period of 50 min. At the end of 1 h resuscitation, an i.v. infusion of Ringer's Lactate (1.5 ml/kg/h) was started as fluid replacement and maintained for a further 3 h.
Four hours after the onset of resuscitation, 1.2 ml blood was collected from the right carotid artery and decanted into serum gel tubes (Sarstedt, Numbrecht, Germany), after which the heart was removed to terminate the experiment. The samples were centrifuged (9900 rpm for 3 min) to separate serum from which urea, creatinine, aspartate aminotransferase (AST), alanine aminotransferase (ALT) and creatinine kinase (CK) were measured within 24 hours (Idexx Laboratories Ltd., West Yorkshire, UK). Urine collected during the last 3 h of the experiment was analysed for creatinine levels in order to estimate creatinine clearance as an indicator of glomerular dysfunction and was calculated as follows: […]
Sham-operated rats underwent identical surgical procedures but without haemorrhage or resuscitation.

[2] = bolus 10, 3, 1 mg/kg in 10% DMSO upon reperfusion, P>0.05 vs Control
[3] = 1 mg/kg i.v. on resuscitation, P>0.05
[4] = both 3 and 10 mg/kg i.v. on resuscitation, P<0.05

C[C@H]1[C@H](OC(=O)CCC(=O)O)O[C@@H]2O[C@@]3(C)CC[C@H]4[C@H](C)CC[C@@H]1[C@@]24OO3 [artesunate]
rise in serum ALT (mice injected with LPS): no significant effect | rise in serum creatinine (mice injected with LPS; P>0.05): no significant effect | rise in serum urea (mice injected with LPS; P>0.05): no significant effect | Infarct size reduction ([1]; 1 mg/kg i.v. upon reperfusion): 12% | infarct size (percentage of the AAR) ([1]; 1 mg/kg i.v. upon reperfusion): 48.0±3.5% | Infarct size reduction ([1]; 3 mg/kg i.v. upon reperfusion): 13% | infarct size (percentage of the AAR) ([1]; 3 mg/kg i.v. upon reperfusion): 46.9±2.3% | infarct size (percentage of the AAR) ([1]; 10 mg/kg i.v. bolus upon reperfusion, 25 min ischaemia, 2 h reperfusion): 42.8±1.7% | Infarct size reduction ([1]; 10 mg/kg i.v. upon reperfusion): 28% | fall in mean arterial blood pressure caused by myocardial ischaemia and reperfusion [1, 2]: did not attenuate | heart rate [1, 2]: did not have a significant effect | rise in serum ALT (HS-rats; [3]): no significant effect | rise in serum AST (HS-rats; [3]): no significant effect | rise in serum creatinine (HS-rats; [3]): no significant effect | rise in serum creatinine kinase (HS-rats; [3]): no significant effect | rise in serum urea (HS-rats; [3]): no significant effect | rise in serum urea (HS-rats; 3 mg/kg i.v. on resuscitation, 4 h after onset of resuscitation, P<0.05 vs HS-rats): significantly attenuated | rise in serum creatinine (HS-rats; 3 mg/kg i.v. on resuscitation, P<0.005 vs HS-rats): significantly attenuated | rise in serum creatinine (HS-rats; 10 mg/kg i.v. on resuscitation, P<0.005): significantly attenuated | decline in MAP caused by haemorrhage during the resuscitation phase (HS-rats; 1, 3 or 10 mg/kg i.v. on resuscitation, P>0.05): failed to attenuate | rise in serum ALT (HS-rats; both 3 and 10 mg/kg i.v. on resuscitation, P<0.005): significantly attenuated | rise in serum AST (HS-rats; [4]): significantly attenuated | rise in serum creatinine kinase (HS-rats; [4]): significantly attenuated
